“Also recorded” adds a separate entry of the source.

One data set relates to Z. tritici culture. Briefly: Z. tritici culture viability after 4 h treatment (microscope). Type of data set: cell-based, Zymoseptoria tritici. The settings on record: 4 h treatment, logarithmic growth phase.
The subject of data set [1] is NMT activity in live Z. tritici. Briefly: YnMyr tagging in live Z. tritici, in-gel fluorescence. The protocol: Fig. 2 Inhibition and assessment of myristoylation in vivo. (A) Generalized workflow for identification and quantification of myristoylated proteins. Cells were treated with YnMyr in culture, and cell lysates ligated to multifunctional reagents bearing a TAMRA dye for fluorescent in-gel imaging and/or biotin for affinity enrichment and analysis by proteomics.
YnMyr was used to measure the effect of inhibitor on NMT activity in live Z. tritici.

Data set [2] concerns the target HsNMT1. Details: method as in PMID 29760414. The settings on record: estimated; cited from earlier work.
The subject of the next data set is Z. tritici. Briefly: Anti-proliferative EC50 assay (MTS viability). It counts as cell-based, Zymoseptoria tritici. The settings on record: Fig. 1B, Z. tritici cell viability, MTS, 40 h.
For a further data set, the target named is ZtNMTΔ99 (Zymoseptoria tritici, UniProt F9XBB7). Briefly: ZtNMT IC50 assay (CPM, enzymatic). It counts as biochemical. The text has this:
As the peptide substrate we used an octapeptide derived from the N-terminus of F9X1I2 (Z. tritici predicted homolog of ADP-ribosylation factor 1, ARF1), which we hypothesized would be natively myristoylated in vivo.
Fig. 1 ZtNMT enzymatic activity and structure. […] The CPM reagent enables fluorogenic readout of the reaction rate based on the generation of coenzyme A thiol. […] (D) ZtNMT homology model generated using Swiss Model[26] based on a reported A. fumigatus NMT X-Ray structure 4UWI[27] was aligned to HsNMT1 (PDB: 5MU6, in transparent grey). […] (E) A map of ligand interactions between docked IMP-1088 and its induced fit generated ZtNMT receptor protein residues.
The assay was adapted from a previous publication.[25] […] Accumulation of fluorescence signal at 470 nm was measured at one-minute intervals during the first 20 minutes of the reaction. Rates of the enzymatic reaction were calculated from the linear range of the resulting fluorescence over time curve using GraphPad Prizm 5. Then, sigmoidal dose–response (variable curve) fitting was applied to the data to obtain IC50 values. The assay was performed with at least 2 replicates, mean and confidence intervals are reported.

Data set [3] relates to Z. tritici whole proteome. The experiment in a line: TMT-based proteomics of the whole lysate after NMT inhibition. Type of data set: cell-based, Zymoseptoria tritici. The settings on record: 8-64 μM, 4 h. The method, then:
These changes reflect the acute response mounted by the fungus in response to compound and are relatively substantial considering that they occur following only 4 hours of inhibitor treatment. Limited annotation of Z. tritici genes[43] prompted us to undertake an in-depth analysis using NCBI BLAST+[39] to find closest homologs in S. cerevisiae, one of the most well-annotated yeast genomes available. We performed the search filtering out poor alignment matches (e-value > 0.01) and selected a single best match in the S. cerevisiae proteome for each Z. tritici protein.
Fig. 3 Response of Z. tritici to treatment with NMT inhibitors. […] Data is normalized by subtraction of the row mean values. (B) GO biological process and KEGG term enrichments using Fisher's exact test applied to proteins in Cluster W. (C) GO biological process term enrichments from Fisher's exact test applied to proteins in Cluster Z. GO annotation were assigned to Z. tritici proteins based on S. cerevisiae homolog (BLAST analysis) terms.
0.8 mg of each of the TMTsixplex™ Isobaric labels was dissolved in 41 μl anhydrous acetonitrile and then 8 μl of the solution of a reagent was added to 30 μl of corresponding peptide solution to start the labelling reaction. The solution was stirred at room temperature for 1.5 h. […]

Data set [4] relates to Z. tritici myristoylated proteome. Briefly: TMT-based proteomics of myristate enriched proteins after NMT inhibition. Type of data set: cell-based, Zymoseptoria tritici.
The subject of data set [5] is HsNMT1. The settings on record: Table S1; ref SI refs 1-7 as given with each inhibitor name; cited from earlier work.

ZtNMTΔ99, sequence (F9XBB7 entry or part of it, stated change not applied): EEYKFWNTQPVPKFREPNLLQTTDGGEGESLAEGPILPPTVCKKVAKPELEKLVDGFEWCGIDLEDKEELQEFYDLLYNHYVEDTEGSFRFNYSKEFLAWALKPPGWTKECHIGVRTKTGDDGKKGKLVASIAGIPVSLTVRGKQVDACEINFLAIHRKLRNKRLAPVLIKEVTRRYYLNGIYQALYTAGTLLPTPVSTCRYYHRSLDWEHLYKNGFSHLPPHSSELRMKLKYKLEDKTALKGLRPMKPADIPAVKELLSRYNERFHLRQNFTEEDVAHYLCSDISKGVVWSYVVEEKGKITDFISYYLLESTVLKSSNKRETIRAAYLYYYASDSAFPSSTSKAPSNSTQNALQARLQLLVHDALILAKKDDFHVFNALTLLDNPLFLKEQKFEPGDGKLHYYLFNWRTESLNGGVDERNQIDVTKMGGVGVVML

Consider `Cc1nn(C)c(C)c1CCOc1c(-c2ccc3c(c2)c(CN(C)C)nn3C)ccc(F)c1F` [IMP-1088], for which, in the data set on Z. tritici culture, the “effect on cell viability” value is given as “no detectable effect on cell viability”. The “TC50 (half maximal concentration of YnMyr tagging)” value in data set [1] (4 h, intensity of most prominent band (ca. 20 kDa), in-gel fluorescence) turned out to be 14 ± 1 µM. Also, the “effect on YnMyr labeling (in-gel band intensities)” value in data set [1] (4 h with compound and YnMyr, TAMRA fluorescence) was “dose-dependently reduces labeling; also recorded: reduced YnMyr tagging”. The Kd at HsNMT1 [2] was under 0.0002 µM. The EC50 in the data set on Z. tritici is 23 µM; in the data set with Z. tritici (Zymoseptoria tritici), about 20 µM. The IC50 on ZtNMTΔ99 was 0.012 µM; with HsNMT1 [5], under 0.001 µM. For the same molecule, in data set [3], the whole proteome response entry is given as “significant dose-dependent changes in the expression of multiple proteins”. In addition, in data set [4] (64 μM versus DMSO, 4 h), the “YnMyr tagging of myristoylated proteins” value is on record as “reduced tagging”. Besides, the “TC50 (concentration of half-tagging with YnMyr)” value in data set [4] (first subset of myristoylated proteins in Cluster 1) fell in the range of 8 to 16 µM; in data set [4] (second subset of myristoylated proteins in Cluster 1) it was 16 to 32 µM; in data set [4] (third subset of myristoylated proteins in Cluster 1), 32 to 64 µM.

In general, Kd refers to the equilibrium constant for the complex coming apart. A word on the EC50: it is the concentration giving half of the maximal effect. Higher therefore signals a less potent agent. Broadly, the IC50 is the midpoint of a concentration-inhibition curve.

The values above are taken from paper PMC8341946, “Wheat pathogen Zymoseptoria tritici N-myristoyltransferase inhibitors: on-target antifungal activity and an unusual metabolic defense mechanism” (RSC Chemical Biology, 2020).
